# In the oligonucleotide strings, read from the 5' end, every base follows the letter of its sugar. An asterisk marks phosphorothioate; unmarked linkages are phosphodiester. Other units and linkages are bracketed, terminal groups are in braces. A string of capitals states the bases alone. e = 2'-O-(2-methoxyethyl) (MOE); [5mC] = 5-methylcytosine; d = 2'-deoxy (DNA)
# Experiments:
# HuVECs = experiment: Endothelial tube formation assay in HuVECs; conditions: 75 nM oligomeric compound, Table 59
# Experimental: In some embodiments, HUVECs are used to measure the effects of oligomeric compounds of the invention on endothelial tube formation activity. The tube formation assay is performed using an in vitro Angiogenesis Assay Kit (Chemicon International, Temecula, Calif.).
# Untreated control cells receive LIPOFECTIN™ only.
# Approximately fifty hours after transfection, cells are transferred to 96-well plates coated with ECMatrix™ (Chemicon International). Under these conditions, untreated HUVECs form tube-like structures. After an overnight incubation at 37° C., treated and untreated cells are inspected by light microscopy. Tube formation in cells treated with oligomeric compounds is compared to that in untreated control cells. Individual wells are assigned discrete scores from 1 to 5 depending on the extent of tube formation. A score of 1 refers to a well with no tube formation while a score of 5 is given to wells where all cells are forming an extensive tubular network.
# In one embodiment, primary human umbilical vein endothelial cells (HuVECs) were used to measure the effects of oligomeric compounds targeted to miRNAs on tube formation activity. HuVECs were routinely cultured in EBM (Clonetics Corporation, Walkersville, Md.) supplemented with SingleQuots supplements (Clonetics Corporation, Walkersville, Md.). […] HuVECs are plated at 3000 cells/well in 96-well plates. One day later, cells are transfected with oligomeric compounds. The tube formation assay is performed using an in vitro Angiogenesis Assay Kit (Chemicon International, Temecula, Calif.).
# ISIS 29248 and ISIS 196103 are chimeric 5-10-52′-MOE gapmer oligonucleotides. […] All cytidine residues are 5-methylcytidines. ISIS 342672 (SEQ ID NO: 789) contains 13 mismatches with respect to the mature mir-143 miRNA, and was also used as a negative control. ISIS 342672 is a uniform 2′-MOE phosphorothioate oligomeric compound 22 nucleotides in length. All cytidine residues are 5-methylcytidines.
# Oligomeric compound was mixed with LIPOFECTIN™ (Invitrogen Life Technologies, Carlsbad, Calif.) in OPTI-MEM™ (Invitrogen Life Technologies, Carlsbad, Calif.) to achieve a final concentration of 75 nM of oligomeric compound and 2.25 μg/mL LIPOFECTIN™. Before adding to cells, the oligomeric compound, LIPOFECTIN™ and OPTI-MEM™ were mixed thoroughly and incubated for 0.5 hrs. Untreated control cells received LIPOFECTIN™ only. […] Compounds targeted to miRNAs were tested in triplicate, and ISIS 29848 was tested in up to six replicates. […] 100 μL of full growth medium was added to each well. Fifty hours after transfection, cells are transferred to 96-well plates coated with ECMa-trix™ (Chemicon Inter-national). Under these conditions, untreated HuVECs form tube-like structures.
# mir-30a pri-miRNA = experiment: mir-30a luciferase reporter (pGL3C-M30-4X) assay in 293T cells; format: cell-based, human; conditions: for percent control luciferase expression: 150 nM oligomeric compound, then mir-30a pri-miRNA mimic 200 nM, pGL3C-M30-4X normalized to pRL-CMV; for reversing the mir-30a miRNA-mediated silencing of luciferase reporter: 150 nM, then mir-30a pri-miRNA mimic
# Source text: In one embodiment of the invention, oligomeric compounds targeting the hairpin structure of mir-30a pri-miRNA were designed and tested for their effects on miRNA signaling in 293T cells (American Type Culture Collection (Manassas, Va.)).
# A synthetic DNA fragment comprised of four tandem repeats of the target site for mir-30a was cloned into the vector pGL3-C (purchased from Promega Corp., Madison Wis.) at the unique XbaI site (pGL3C-M30-4X). This places the target site in the 3′UTR of the luciferase reporter vector. An oligomeric compound mimicking the mir-30a pri-miRNA ([…] […], herein incorporated as SEQ ID NO: 1749) was in vitro transcribed using T7 RNA polymerase and a DNA template produced by PCR (the T7 promoter is shown in bold).
# On the day prior to the experiment 24-well plates were seeded with 293T cells at 50% confluency. The following morning cells were treated with oligomeric compounds targeted to the mir-30a pri-miRNA mimic. All of the compounds are 20 nucleobases in length having either a phosphorothioate backbone throughout (PS) or a phosphodiester backbone throughout (PO). […] All cytidine residues are 5-methylcytidines. The remaining compounds in the table have 2′-methoxyethoxy (MOE) nucleotides throughout with either a phosphorothioate (PS) or phosphodiester (PO) internucleoside linkages.
# Cells were washed once with PBS then oligomeric compounds were added to triplicate wells at 150 nM in OPTI-MEM™ media and 4.5 μl/ml LIPOFECTIN™ reagent (Invitrogen Corporation, Carlsbad, Calif.). After 3 hours, the media was removed, and the cells were treated with the mir-30a pri-miRNA mimic at 200 nM in OPTI-MEM™ with 6 μl/ml LIPOFECTIN™ reagent. After 3 hours the media was removed from the cells. The reporter plasmid, pGL3C-M30-4X, was then transfected using SuperFect reagent. 20 μg of pGL3C-M30-4X and 2 μg of pRL-CMV, a plasmid expressing Renilla luciferase, were suspended in 600 μL of serum-free DMEM to which 120 μl of Superfect was added. After a 5 minute incubation, 6 mls of DMEM+10% FCS was added. 125 μL of the plasmid/SuperFect suspension was added to each well. After a 2 hour incubation cells were washed and fresh growth media added. Cells were incubated overnight.
# The following morning the media was removed and the cells were lysed in 120 μL passive lysis buffer (PLB; Promega). 40 μL of the lysate was then assayed for Photinus (PL) and Renilla (RL) luciferases using a Dual Luciferase Assay kit (Promega) according to the manufacturer's protocol. The results below are given as percent pGL3C-M30-4× expression (PL) normalized to pRL-CMV expression (RL). The 20-nucleobase oligonucleotide random-mer ISIS Number 29848 was used as a negative control.
# IL-12 mRNA = IL-12 mRNA in LPS-activated primary murine macrophages; format: cell-based, mouse; conditions: normalized to LPS-treated cells without oligomeric compound
# ob/ob mice = experiment: ob/ob mice: plasma parameters, food consumption, marker gene mRNA; format: in vivo, mouse; conditions: six week old ob/ob mice, 25 mg/kg twice weekly for four weeks
# Source text: Leptin is a hormone produced by fat cells that regulates appetite. Deficiencies in this hormone in both humans and non-human animals leads to obesity. ob/ob mice have a mutation in the leptin gene which results in obesity and hyperglycemia. As such, these mice are a useful model for the investigation of obesity and diabetes and treatments designed to treat these conditions. ob/ob mice have higher circulating levels of insulin and are less hyperglycemic than db/db mice, which harbor a mutation in the leptin receptor. In accordance with the present invention, the oligomeric compounds of the invention are tested in the ob/ob model of obesity and diabetes.
# Seven-week old male C57B1/6J-Lep ob/ob mice (Jackson Laboratory, Bar Harbor, Me.) are fed a diet with a fat content of 10-15% and are subcutaneously injected with the oligomeric compounds of the invention or a control compound at a dose of 25 mg/kg two times per week for 4 weeks. Saline-injected animals, leptin wildtype littermates (i.e. lean littermates) and ob/ob mice fed a standard rodent diet serve as controls. After the treatment period, mice are sacrificed and target levels are evaluated in liver, brown adipose tissue (BAT) and white adipose tissue (WAT). RNA isolation and target RNA expression level quantitation are performed as described by other examples herein.
# To assess the physiological effects resulting from modulation of target, the ob/ob mice are evaluated at the end of the treatment period for serum lipids, serum free fatty acids, serum cholesterol (CHOL), liver triglycerides, fat tissue triglycerides and liver enzyme levels. Hepatic steatosis, or clearing of lipids from the liver, is assessed by measuring the liver triglyceride content. Hepatic steatosis is assessed by routine histological analysis of frozen liver tissue sections stained with oil red O stain, which is commonly used to visualize lipid deposits, and counterstained with hematoxylin and eosin, to visualize nuclei and cytoplasm, respectively.
# The effects of target modulation on glucose and insulin metabolism are evaluated in the ob/ob mice treated with the oligomeric compounds of the invention. Plasma glucose is measured at the start of the treatment and after 2 weeks and 4 weeks of treatment. Plasma insulin is similarly measured at the beginning of the treatment, and following at 2 weeks and at 4 weeks of treatment. Glucose and insulin tolerance tests are also administered in fed and fasted mice. Mice receive intraperitoneal injections of either glucose or insulin, and the blood glucose and insulin levels are measured before the insulin or glucose challenge and at 15, 20 or 30 minute intervals for up to 3 hours.
# The ob/ob mice that receive treatment are evaluated at the end of the treatment period for the effects of target modulation on the expression of genes that participate in lipid metabolism, cholesterol biosynthesis, fatty acid oxidation, fatty acid storage, gluconeogenesis and glucose metabolism. These genes include, but are not limited to, HMG-CoA reductase, acetyl-CoA carboxylase 1 and acetyl-CoA carboxylase 2, camitine palmitoyltransferase I and glycogen phosphorylase, glucose-6-phosphatase and phosphoenolpyruvate carboxykinase 1, lipoprotein lipase and hormone sensitive lipase. mRNA levels in liver and white and brown adipose tissue are quantitated by real-time PCR as described in other examples herein, employing primer/probe sets that are generated using published sequences of each gene of interest.
# As described herein, leptin-deficient (ob/ob) mice, leptin receptor-deficient (db/db) mice and diet-induced obesity (DIO) mice are used to model obesity and diabetes. In accordance with the present invention, oligomeric compounds targeting mir-143, mir-131 (also known as mir-9) and mir-203 were tested in the ob/ob and db/db models. […]
Substance,percent control luciferase expression (mir-30a pri-miRNA) [percent control],other results
327874 (antisense eG*e[5mC]*eT*eG*e[5mC]*eA*eA*eA*e[5mC]*eA*eT*e[5mC]*e[5mC]*eG*eA*e[5mC]*eT*eG*eA*eA*eA*eG) [compound 327874],66,"% Activity Relative to UTC (tube formation) (HuVECs): 46.7%; IL-12 mRNA expression, −IFN % UTC (IL-12 mRNA; 300 nM oligomeric compound and LPS, no IFN-gamma pretreatment, single experiment): 202 % UTC; IL-12 mRNA expression, +IFN % UTC (IL-12 mRNA; 300 nM oligomeric compound, stimulation with IFN-gamma and LPS, average of 2 experiments): 15 % UTC"
"328075 (antisense GCTTCACAGCTTCCAGTCGA; all 2'-MOE, all phosphorothioate, methylation of C not given here) [compound 328075]",55,–
328076 (antisense eG*e[5mC]*eT*eT*e[5mC]*dA*d[5mC]*dA*dG*d[5mC]*dT*dT*d[5mC]*d[5mC]*dA*eG*eT*e[5mC]*eG*eA) [compound 328076],57,–
"328077 (antisense CCCATCTGTGGCTTCACAGC; all 2'-MOE, all phosphorothioate, methylation of C not given here) [compound 328077]",70,–
328078 (antisense e[5mC]*e[5mC]*e[5mC]*eA*eT*d[5mC]*dT*dG*dT*dG*dG*d[5mC]*dT*dT*d[5mC]*eA*e[5mC]*eA*eG*e[5mC]) [compound 328078],63,–
"328080 (antisense TGAAAGCCCATCTGTGGCTT; all 2'-MOE, all phosphorothioate, methylation of C not given here) [compound 328080]",72,–
328081 (antisense eT*eG*eA*eA*eA*dG*d[5mC]*d[5mC]*d[5mC]*dA*dT*d[5mC]*dT*dG*dT*eG*eG*e[5mC]*eT*eT) [compound 328081],80,–
"328085 (antisense CATCTGTGGCTTCACAGCTT; all 2'-MOE, all phosphorothioate, methylation of C not given here; designed as pseudo half-knot compound) [compound 328085]",72,–
328086 (antisense e[5mC]*eA*eT*e[5mC]*eT*dG*dT*dG*dG*d[5mC]*dT*dT*d[5mC]*dA*d[5mC]*eA*eG*e[5mC]*eT*eT) [compound 328086],95,–
"328087 (antisense AAGCCCATCTGTGGCTTCAC; all 2'-MOE, all phosphorothioate, methylation of C not given here; pseudo half-knot design targeting pri-miRNA hairpin) [compound 328087]",83,–
328088 (antisense eA*eA*eG*e[5mC]*e[5mC]*d[5mC]*dA*dT*d[5mC]*dT*dG*dT*dG*dG*d[5mC]*eT*eT*e[5mC]*eA*e[5mC]) [compound 328088],107,–
"GAAACCCAGCAGACAATGTAGCT (anti-miR; chemistry not fully specified) [ISIS 345384, PS 2′-MOE 5-10-8 gapmer; targets mir-221]",–,plasma glucose levels in the fed state (ob/ob mice): reductions in plasma glucose levels in the fed state at weeks two and four
"ISIS 328086: 5-10-5 2′-MOE gapmer, pseudo half-knot compound targeting the mir-30a pri-miRNA (antisense e[5mC]*eA*eT*e[5mC]*eT*dG*dT*dG*dG*d[5mC]*dT*dT*d[5mC]*dA*d[5mC]*eA*eG*e[5mC]*eT*eT; pseudo half-knot compound)",–,reversing the mir-30a miRNA-mediated silencing of luciferase reporter (mir-30a pri-miRNA): restoring luciferase reporter expression to near control levels
"ISIS 328087: 2′-MOE throughout; pseudo half-knot compound targeting the mir-30a pri-miRNA (antisense AAGCCCATCTGTGGCTTCAC; all 2'-MOE, all phosphorothioate, methylation of C not given here; pseudo half-knot design targeting pri-miRNA hairpin)",–,reversing the mir-30a miRNA-mediated silencing of luciferase reporter (mir-30a pri-miRNA): restoring luciferase reporter expression to near control levels
"ISIS 328088: 5-10-5 2′-MOE gapmer, pseudo half-knot compound targeting the mir-30a pri-miRNA (antisense eA*eA*eG*e[5mC]*e[5mC]*d[5mC]*dA*dT*d[5mC]*dT*dG*dT*dG*dG*d[5mC]*eT*eT*e[5mC]*eA*e[5mC]; pseudo half-knot compound)",–,reversing the mir-30a miRNA-mediated silencing of luciferase reporter (mir-30a pri-miRNA): restoring luciferase reporter expression to near control levels
